Measured values reported in ChEMBL document CHEMBL1144625, “A new platinum complex of triazine demonstrates G1 arrest with novel biological profile in human breast cancer cell line, MDA-MB-468” (Bioorg Med Chem Lett, 2007).

Tested on: MDA-MB-468
Test: Antiproliferative activity against MDA-MB-468 cells by MTT assay
Format: functional, cell-based
Conditions: Homo sapiens

Structure (SMILES)	IC50 [µM]
c1ccc(Sc2nc(N3CC3)nc(N3CC3)n2)nc1	> 100
c1ccc(Sc2nc(N3CCSCC3)nc(N3CCSCC3)n2)nc1	> 100
c1ccc(Sc2nc(N3CCOCC3)nc(N3CCOCC3)n2)nc1	> 100
